Read-outs that look alike come from different tables or passages of the source.
System: HCV Huh-luc/neo-ET cells (HCV replicon)
Assay: Luciferase-based HCV replicon assay, single agents and combinations
Format: cell-based, hepatitis C virus
Settings: for increase of potency in the presence of Compound 2: Compound 2 at concentrations readily achieved clinically, FIGS. 2b, 3b, Table 2
Method: The cell culture component of the assay is performed essentially as described by Bartenschlager et al., Hepatology, 2002, 35, 694-703, wherein exponentially growing HCV Huh-luc/neo-ET cells are seeded at 6×10^3 cells/well in 96 well assay plate. 24 hours later the cells are treated with various concentrations of compound or combination of compounds in triplicate using both fixed ratios and checkerboard matrices of test agents and cultured for 72 hours. The luciferase activity in the wells is determined using Bright-Glo reagent (Promega, Madison, Wis.) with a luminometer (Wallac 1420 Multilabel HTS Counter Victor 2). The background control is replicon cells treated with 100 nM BILN-2061, an inhibitor of the HCV protease. % Inhibition is determined for each compound concentration or combination of compounds in relation to the negative (no compound) control to calculate the EC50. In the case of ANA773, conditioned media from human PBMCs from multiple donors is pooled after treatment with 100 μM of the active of ANA773 for 24 hours.
Compound 2 was evaluated in combination with Interferon α-2a, Telaprevir (HCV NS3/4 protease inhibitor, also known as VX-950), PSI-6130 the active agent of R7128 (HCV NS5B nucleoside inhibitor), and ANA773 (TLR7 agonist). The 50% inhibitory concentration (EC50) of each compound or combination of compounds is determined independently to determine the range of concentrations used to characterize the interaction of two agents in inhibiting the HCV replicon. […] The ratio of the two compounds tested either remained fixed or is varied across the dosing range to explore the greatest combination surface.
The combination data is analyzed using CalcuSyn (Biosoft, Ferguson, Mo.), a computer program based on the method of Chou and Talalay, J. Biol. Chem., 1977, 252, 6438-6442. Combination index (CI) values for each experimental combination are calculated at the EC50, EC75 and EC90 levels. CI values of <1, 1, and >1 indicate synergy, an additive effect, and antagonism, respectively.

SMILES | EC90 (Compound 2 at 0 ng/mL (agent alone), read-out: EC90) [nM] | increase of potency in the presence of Compound 2 | EC90 (in presence of fixed Compound 2 at 6 ng/mL, read-out: EC90) [nM] | EC90 (in presence of fixed Compound 2 at 17 ng/mL, read-out: EC90) [nM] | EC90 (Hepatitis C virus, Huh-luc/neo-ET, Compound 2 at 0 ng/mL (agent alone)) [nM] | EC90 (Hepatitis C virus, Huh-luc/neo-ET, in presence of fixed Compound 2 at 6 ng/mL) [nM] | EC90 (Hepatitis C virus, Huh-luc/neo-ET, in presence of fixed Compound 2 at 17 ng/mL) [nM] | EC90 (Hepatitis C virus, Huh-luc/neo-ET, in presence of fixed Compound 2 at 170 ng/mL) [nM]
C[C@@]1(F)[C@H](O)[C@@H](CO)O[C@H]1n1ccc(N)nc1=O [PSI-6130] | 11600 | 4-5 fold | 6000 | 2400 |  |  |  | 
CCC[C@H](NC(=O)[C@@H]1[C@H]2CCC[C@H]2CN1C(=O)[C@@H](NC(=O)[C@@H](NC(=O)c1cnccn1)C1CCCCC1)C(C)(C)C)C(=O)C(=O)NC1CC1 [Telaprevir] |  | 2-3 fold |  |  | 2800 | 2400 | 1900 | 1300

Reference: patent US20110229438A1, “METHOD OF INHIBITING HEPATITUS C VIRUS BY COMBINATION OF A 5,6-DIHYDRO-1H-PYRIDIN-2-ONE AND ONE OR MORE ADDITIONAL ANTIVIRAL COMPOUNDS” (priority 2008, published 2011)
